# What was measured:
# Assay type in all cases: in vivo
# Kochia (Kochia scoparia) [1] = test: Test A preemergence; conditions: Bassia scoparia, pre-emergence, 240 h, 0 to 100 scale where 0 is no effect and 100 is complete control, read-out: Kochia plant response rating
# Outline: (§1)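 Visual injury, scored on a 0–100 scale relative to untreated controls, was recorded about 10 d after application. Treatments were a preemergence soil spray over planted seeds or a postemergence spray on plants at the one- to two-leaf stage, 2 to 10 cm tall, all in loam soil–sand blend in the greenhouse.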
# [2] = tested on: barnyardgrass (Echinochloa crus-galli); test: Test A preemergence; conditions: Echinochloa crus-galli, pre-emergence, 240 h, 0 to 100 scale where 0 is no effect and 100 is complete control, read-out: Barnyardgrass plant response rating
# Outline: as §1
# [3] = tested on: giant foxtail (Setaria faberii); test: Test A preemergence; conditions: Setaria faberi, pre-emergence, 240 h, 0 to 100 scale where 0 is no effect and 100 is complete control, read-out: Foxtail, Giant plant response rating
# Outline: as §1
# [4] = tested on: pigweed (Amaranthus retroflexus); test: Test A preemergence; conditions: Amaranthus retroflexus, pre-emergence, 240 h, 0 to 100 scale where 0 is no effect and 100 is complete control, read-out: Pigweed plant response rating
# [5] = tested on: ragweed (common ragweed, Ambrosia elatior); test: Test A preemergence; conditions: Ambrosia artemisiifolia, pre-emergence, 240 h, 0 to 100 scale where 0 is no effect and 100 is complete control, read-out: Ragweed plant response rating
# Outline: as §1
# [6] = tested on: ryegrass, Italian (Italian ryegrass, Lolium multiflorum); test: Test A preemergence; conditions: Lolium multiflorum, pre-emergence, 240 h, 0 to 100 scale where 0 is no effect and 100 is complete control, read-out: Ryegrass, Italian plant response rating
# Outline: as §1
# Kochia (Kochia scoparia) [7] = test: Test A postemergence; conditions: Bassia scoparia, post-emergence, 240 h
# Outline: as §1
# [8] = tested on: barnyardgrass (Echinochloa crus-galli); test: Test A postemergence; conditions: Echinochloa crus-galli, post-emergence, 240 h
# Outline: as §1
# [9] = tested on: blackgrass (Alopecurus myosuroides); test: Test A postemergence; conditions: Alopecurus myosuroides, post-emergence, 240 h
# Outline: as §1
# corn (Zea mays) = test: Test A postemergence; conditions: Zea mays, post-emergence, 240 h
# Outline: as §1
# [10] = tested on: giant foxtail (Setaria faberii); test: Test A postemergence; conditions: Setaria faberi, post-emergence, 240 h
# Outline: as §1
# [11] = tested on: pigweed (Amaranthus retroflexus); test: Test A postemergence; conditions: Amaranthus retroflexus, post-emergence, 240 h
# Outline: as §1
# [12] = tested on: ragweed (common ragweed, Ambrosia elatior); test: Test A postemergence; conditions: Ambrosia artemisiifolia, post-emergence, 240 h
# Outline: as §1
# [13] = tested on: ryegrass, Italian (Italian ryegrass, Lolium multiflorum); test: Test A postemergence; conditions: Lolium multiflorum, post-emergence, 240 h
# Outline: as §1
# [14] = tested on: wheat (Triticum aestivum); test: Test A postemergence; conditions: Triticum aestivum, post-emergence, 240 h
# Outline: as §1
# [15] = tested on: barnyardgrass (Echinochloa crus-galli); test: Test B flooded paddy test; conditions: Echinochloa crus-galli, 250 g ai/ha, Flood; 0 to 100 scale where 0 is no effect and 100 is complete control; read-out: Barnyardgrass plant response rating
# Outline: (§2)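 Visual ratings (0 none to 100 complete control) are relative to untreated plants, taken 13–15 d after treatment in a greenhouse. Test material went straight into floodwater standing 3 cm above the soil, kept constant, on plants at the 2-leaf stage.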
# [16] = tested on: ducksalad (Heteranthera limosa); test: Test B flooded paddy test; conditions: Heteranthera limosa, 250 g ai/ha, Flood; 0 to 100 scale where 0 is no effect and 100 is complete control; read-out: Ducksalad plant response rating
# Outline: as §2
# rice (Oryra sativa) = test: Test B flooded paddy test; conditions: Oryza sativa, 250 g ai/ha, Flood; 0 to 100 scale where 0 is no effect and 100 is complete control; read-out: Rice plant response rating
# Outline: as §2
# [17] = tested on: sedge, umbrella (small-flower umbrella sedge, Cyperus difformis); test: Test B flooded paddy test; conditions: Cyperus difformis, 250 g ai/ha, Flood; 0 to 100 scale where 0 is no effect and 100 is complete control; read-out: Sedge, Umbrella plant response rating
# Outline: as §2
# [18] = 125 g ai/ha, preemergence, approx. 10 d
smiles,measurement,setting,value
CC(C)Oc1cc([C@H]2CN(C)C(=O)[C@@H]2C(=O)Nc2cccc(F)c2F)ccc1F [Compound 1075],pest or weed control at 31 g/ha,"Kochia (Kochia scoparia) [1]; 31 g ai/ha, Preemergence",0%
same,pest or weed control at 125 g/ha,Kochia (Kochia scoparia) [1]; [18],30%
same,pest or weed control at 31 g/ha,"[2]; 31 g ai/ha, Preemergence",100%
same,pest or weed control at 125 g/ha,[2]; [18],100%
same,pest or weed control at 31 g/ha,"[3]; 31 g ai/ha, Preemergence",100%
same,pest or weed control at 125 g/ha,[3]; [18],100%
same,pest or weed control at 31 g/ha,"[4]; 31 g ai/ha, Preemergence",0%
same,pest or weed control at 125 g/ha,[4]; [18],20%
same,pest or weed control at 31 g/ha,"[5]; 31 g ai/ha, Preemergence",30%
same,pest or weed control at 125 g/ha,[5]; [18],20%
same,pest or weed control at 31 g/ha,"[6]; 31 g ai/ha, Preemergence",50%
same,pest or weed control at 125 g/ha,[6]; [18],80%
same,pest or weed control at 125 g/ha,"Kochia (Kochia scoparia) [7]; 125 g ai/ha, postemergence, visual injury on 0 to 100 scale (0 no effect, 100 complete control), approx. 10 d, read-out: Kochia plant response rating",30%
same,pest or weed control at 31 g/ha,"Kochia (Kochia scoparia) [7]; Postemergence, 31 g ai/ha, visual injury after approx. 10 d, 0 to 100 scale, 0 no effect, 100 complete control, read-out: Plant response rating, Kochia",30%
same,pest or weed control at 125 g/ha,"[8]; 125 g ai/ha, postemergence, visual injury on 0 to 100 scale (0 no effect, 100 complete control), approx. 10 d, read-out: Barnyardgrass plant response rating",90%
same,pest or weed control at 31 g/ha,"[8]; Postemergence, 31 g ai/ha, visual injury after approx. 10 d, 0 to 100 scale, 0 no effect, 100 complete control, read-out: Plant response rating, Barnyardgrass",90%
same,pest or weed control at 125 g/ha,"[9]; 125 g ai/ha, postemergence, visual injury on 0 to 100 scale (0 no effect, 100 complete control), approx. 10 d, read-out: Blackgrass plant response rating",50%
same,pest or weed control at 31 g/ha,"[9]; Postemergence, 31 g ai/ha, visual injury after approx. 10 d, 0 to 100 scale, 0 no effect, 100 complete control, read-out: Plant response rating, Blackgrass",40%
same,plant injury at 125 g/ha,"corn (Zea mays); 125 g ai/ha, postemergence, visual injury on 0 to 100 scale (0 no effect, 100 complete control), approx. 10 d, read-out: Corn plant response rating",70%
same,"Corn plant response rating (crop injury, 0 = no effect, 100 = complete kill) at 31 g/ha","corn (Zea mays); Postemergence, 31 g ai/ha, visual injury after approx. 10 d, 0 to 100 scale, 0 no effect, 100 complete control",20%
same,pest or weed control at 125 g/ha,"[10]; 125 g ai/ha, postemergence, visual injury on 0 to 100 scale (0 no effect, 100 complete control), approx. 10 d, read-out: Foxtail, Giant plant response rating",90%
same,pest or weed control at 31 g/ha,"[10]; Postemergence, 31 g ai/ha, visual injury after approx. 10 d, 0 to 100 scale, 0 no effect, 100 complete control, read-out: Plant response rating, Foxtail, Giant",80%
same,pest or weed control at 125 g/ha,"[11]; 125 g ai/ha, postemergence, visual injury on 0 to 100 scale (0 no effect, 100 complete control), approx. 10 d, read-out: Pigweed plant response rating",0%
same,pest or weed control at 31 g/ha,"[11]; Postemergence, 31 g ai/ha, visual injury after approx. 10 d, 0 to 100 scale, 0 no effect, 100 complete control, read-out: Plant response rating, Pigweed",0%
same,pest or weed control at 125 g/ha,"[12]; 125 g ai/ha, postemergence, visual injury on 0 to 100 scale (0 no effect, 100 complete control), approx. 10 d, read-out: Ragweed plant response rating",40%
same,pest or weed control at 31 g/ha,"[12]; Postemergence, 31 g ai/ha, visual injury after approx. 10 d, 0 to 100 scale, 0 no effect, 100 complete control, read-out: Plant response rating, Ragweed",0%
same,pest or weed control at 125 g/ha,"[13]; 125 g ai/ha, postemergence, visual injury on 0 to 100 scale (0 no effect, 100 complete control), approx. 10 d, read-out: Ryegrass, Italian plant response rating",70%
same,pest or weed control at 31 g/ha,"[13]; Postemergence, 31 g ai/ha, visual injury after approx. 10 d, 0 to 100 scale, 0 no effect, 100 complete control, read-out: Plant response rating, Ryegrass, Italian",0%
same,plant injury at 125 g/ha,"[14]; 125 g ai/ha, postemergence, visual injury on 0 to 100 scale (0 no effect, 100 complete control), approx. 10 d, read-out: Wheat plant response rating",60%
same,plant injury at 31 g/ha,"[14]; Postemergence, 31 g ai/ha, visual injury after approx. 10 d, 0 to 100 scale, 0 no effect, 100 complete control, read-out: Plant response rating, Wheat",0%
same,pest or weed control at 250 g/ha,[15],75%
same,pest or weed control at 250 g/ha,[16],100%
same,pest or weed control at 250 g/ha,rice (Oryra sativa),35%
same,pest or weed control at 250 g/ha,[17],0%

# — patent US12077503B2, “Substituted cyclic amides and their use as herbicides” (FMC CORPORATION, priority 2015, dated 2024)
